What was measured:
AMPA receptor = settings: cited from earlier work
[1] = tested on: sleep deprived non-human primates; assay: Delayed Match To Sample (DMTS) task after sleep deprivation; format: in vivo; settings: for Performance on DMTS Task (% Correct ± sem): Sleep Deprivation + BCM
Text: This task consists of a kind of “heads-up” display wherein the monkey interacts with a computer video display through motions of its hand. […] A fluorescent spot on the back of the monkey's hand is tracked by an overhead camera, and the coordinates of the hand position are proportionally translated into movement of a cursor on the video display. The animal responds to single Sample phase images by placing the cursor inside the image, then after a delay (during which the display is blanked) the animal must select the appropriate Match image (out of 2-6 different images) by placing the cursor inside the image identical to the Sample. Animal performance is scored as correct responses according to length of delay, and complexity of the trial (number of match images). Recent findings have shown that primate hippocampal neurons encode specific features of the task and stimulus, and that strength of the encoding correlates to behavioral success. Recording and on-line analysis of hippocampal neural activity allows tracking of the animal's cognitive performance under various experimental conditions. Two additional measures (eye and limb movement tracking) along with recording of movement sensitive neurons in hippocampus, putamen and motor cortex provide assessment of attention and ability to perform directed motor movements. Thus, it is possible to distinguish behavioral errors due to inattention or slow movements from those caused by inappropriate cognitive processing of the task information.
(§1) In practice, an animal is trained in the DMTS task such that his daily performance variable is relatively constant. This is judged as baseline performance. Once a stable baseline is established, the subject is deprived of sleep for variable periods in order to establish the effect of sleep deprivation on performance. The ability of an AMPA receptor modulator to ameliorate the decline in performance in the DMTS task is assessed by administered of the test compound prior to or during testing after sleep deprivation. If the test compound is administer prior to the beginning of the test session, then the effect of the drug is compared to performance following sleep deprivation on prior or subsequent days of testing. This protocol allows for the co-administration of a metabolic tracer (such as fluorodeoxyglucose labeled with fluorine-18; FDG) so that regional brain activity can be evaluated using Positron Emission Tomography (PET). Alternatively, an intravenous administration of the test compound midway into the DMTS session allows for a within-session evaluation of drug effect.

[2] = tested on: sleep deprived non-human primates; assay: Regional glucose utilization (FDG PET) in brain during DMTS task; format: in vivo
Method: as §1
Positron Emission Tomography (PET) was used in order to examine the extent to which different brain regions were effected by sleep deprivation by measuring the uptake of ^18F-labeled fluorodeoxyglucose (FDG) into cells as a measure of metabolic activity. By this method it was observed that there was a general increase in metabolism across all brain regions on test days that followed sleep deprivation compared to normal baseline test days (FIG. 2).
The absolute values shown in FIG. 2 can be normalized to global brain metabolism (FIG. 3) by the following equation: (ROISD/GSD−ROIBL/GBL)/GBL where ROI mean region of interest, SD means under the condition of sleep deprivation, G means global and BL means under the condition of baseline performance.

SMILES: COc1ccc(C(=O)N2CCCC2=O)cc1 [Aniracetam]
- Mean open time of the AMPA receptor channel (AMPA receptor): increase the mean open time
- Amplitude of the synaptic current (AMPA receptor; mirrored in the field EPSP): increases the amplitude
- Duration of the synaptic current (AMPA receptor; mirrored in the field EPSP): prolongs its duration

SMILES: O=C(c1ccc2nccnc2c1)N1CCCCC1 [CX516, 1-(Quinoxaline-6-ylcarbonyl)piperidine]
- Improving performance in DMTS task ([1]; in vivo): effective at improving performance

SMILES: O=C(c1ccc2nonc2c1)N1CCOCC1 [BCM, 1-(Benzofurazan-5-ylcarbonyl)morpholine]
- Metabolism (absolute uptake of FDG) in all brain regions ([2]; BCM following sleep deprivation, compared to vehicle administration, FIG. 2): reduced compared to vehicle administration
- Metabolism (uptake of FDG) in several brain regions relative to normal ([2]; BCM following sleep deprivation, FIG. 2): near normal levels
- Energy demand of the brain to perform the DMTS task (FDG uptake normalized to global brain metabolism) ([2]; FIG. 3, normalized data): reduction in energy demand
- Effect on the performance deficit in DMTS task caused by sleep deprivation ([1]; 0.8 mg/kg (iv), single night of sleep deprivation): completely reversed the performance deficit
- Performance compared to baseline ([1]; Subject 1, 0.8 mg/kg (iv) after sleep deprivation): enhanced performance compared to baseline
- Performance on DMTS Task (% Correct ± sem) ([1]; Subject No. 1, 0.8 mg/kg (iv), baseline 81 ± 2, sleep deprivation 65 ± 1): 87 ± 2 % Correct
- Performance on DMTS Task (% Correct ± sem) ([1]; Subject No. 2, 0.8 mg/kg (iv), baseline 81 ± 2, sleep deprivation 67 ± 4): 83 ± 3 % Correct
- Latencies to respond in the Match phase ([1]; drug administration after sleep deprivation, FIG. 1): not effected

Reference: US20060276462A1, “Method of treating cognitive decline due to sleep deprivation and stress” (priority 2003, published 2006)
